# Results from patent publication US12201640B2, “19-nor C3,3-disubstituted C21-n-pyrazolyl steroids and methods of use thereof” (Sage Therapeutics, Inc., priority 2013, dated 2025).
# pEC50: −log10 of the molar value. Read-outs that look alike come from different tables or passages of the source.
# Key:
# [1] = target: T1, GABAA-R (Homo sapiens, UniProt P14867+P47870); assay: Electrophysiological evaluation at GABAA-R (Table 2); format: cell-based
# T1 sequence (P14867 1-456): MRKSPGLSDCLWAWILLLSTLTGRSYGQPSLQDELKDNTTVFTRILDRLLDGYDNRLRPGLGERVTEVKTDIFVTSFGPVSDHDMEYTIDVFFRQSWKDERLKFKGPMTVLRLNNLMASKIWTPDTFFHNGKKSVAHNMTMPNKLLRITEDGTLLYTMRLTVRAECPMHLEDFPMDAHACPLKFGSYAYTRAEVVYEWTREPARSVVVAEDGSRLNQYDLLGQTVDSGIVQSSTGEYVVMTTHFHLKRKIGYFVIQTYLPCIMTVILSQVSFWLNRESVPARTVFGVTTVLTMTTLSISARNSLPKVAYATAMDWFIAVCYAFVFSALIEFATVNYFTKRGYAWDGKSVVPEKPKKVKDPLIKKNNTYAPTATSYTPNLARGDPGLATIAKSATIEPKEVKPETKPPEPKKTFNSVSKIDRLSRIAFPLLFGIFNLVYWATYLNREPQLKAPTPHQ
# T1 sequence (P47870 1-512): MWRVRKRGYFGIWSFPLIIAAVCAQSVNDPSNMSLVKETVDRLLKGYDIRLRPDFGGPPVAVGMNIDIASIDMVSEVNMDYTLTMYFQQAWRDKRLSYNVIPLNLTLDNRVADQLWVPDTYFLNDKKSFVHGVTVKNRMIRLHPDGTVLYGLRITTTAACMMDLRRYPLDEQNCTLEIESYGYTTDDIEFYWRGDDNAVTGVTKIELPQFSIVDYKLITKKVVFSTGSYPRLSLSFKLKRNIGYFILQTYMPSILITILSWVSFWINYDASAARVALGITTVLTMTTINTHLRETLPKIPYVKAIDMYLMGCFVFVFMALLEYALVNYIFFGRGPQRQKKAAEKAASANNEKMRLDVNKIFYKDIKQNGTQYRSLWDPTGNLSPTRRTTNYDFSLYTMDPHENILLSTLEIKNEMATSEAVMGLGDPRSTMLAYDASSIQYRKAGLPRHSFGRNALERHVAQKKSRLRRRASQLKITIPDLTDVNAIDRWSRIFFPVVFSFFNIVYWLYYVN
# Experimental: Patch Clamp Electrophysiology of Recombinant α1β2γ2 and α4β3δ GABAA Receptors
# Cellular electrophysiology is used to measure the pharmacological properties of our GABAA receptor modulators in heterologous cell systems. Each compound is tested for its ability to affect GABA mediated currents at a submaximal agonist dose (GABA EC20=2 μM). LTK cells are stably transfected with the α1β2γ2 subunits of the GABA receptor and CHO cells are transiently transfected with the α4β3δ subunits via the Lipofecatamine method. Cells were passaged at a confluence of about 50-80% and then seeded onto 35 mm sterile culture dishes containing 2 ml culture complete medium without antibiotics or antimycotics. Confluent clusters of cells are electrically coupled (Pritchett et al., Science, 1988, 242, 1306-1308.). Because responses in distant cells are not adequately voltage clamped and because of uncertainties about the extent of coupling (Verdoorn et al., Neuron 1990, 4, 919-928.), cells were cultivated at a density that enables the recording of single cells (without visible connections to other cells).
# Whole cell currents were measured with HEKA EPC-10 amplifiers using PatchMaster software or by using the high throughput QPatch platform (Sophion). Bath solution for all experiments contained (in mM): NaCl 137 mM, KCl 4 mM, CaCl2 1.8 mM, MgCl2 1 mM, HEPES 10 mM, D-Glucose 10 mM, pH (NaOH) 7.4. In some cases 0.005% cremophor was also added. Intracellular (pipette) solution contained: KCl 130 mM, MgCl2 1 mM, Mg-ATP 5 mM, HEPES 10 mM, EGTA 5 mM, pH 7.2. During experiments, cells and solutions were maintained at room temperature (19° C.-30° C.). For manual patch clamp recordings, cell culture dishes were placed on the dish holder of the microscope and continuously perfused (1 ml/min) with bath solution. After formation of a Gigaohm seal between the patch electrodes and the cell (pipette resistance range: 2.5 MΩ-6.0 MΩ; seal resistance range: >1 GΩ) the cell membrane across the pipette tip was ruptured to assure electrical access to the cell interior (whole-cell patch-configuration). For experiments using the QPatch system, cells were transferred as suspension to the QPatch system in the bath solution and automated whole cell recordings were performed.
# Cells were voltage clamped at a holding potential of −80 mV. For the analysis of test articles, GABA receptors were stimulated by 2 μM GABA after sequential pre-incubation of increasing concentrations of the test article. Pre-incubation duration was 30 s and the duration of the GABA stimulus was 2 s. Test articles were dissolved in DMSO to form stock solutions (10 mM). Test articles were diluted to 0.01, 0.1, 1, and 10 μM in bath solution. All concentrations of test articles were tested on each cell. The relative percentage potentiation was defined as the peak amplitude in response to GABA EC20 in the presence of the test article divided by the peak amplitude in response to GABA EC20 alone, multiplied by 100.
# [2] = target: T2, GABAA receptor α1β2γ2 (Homo sapiens, UniProt P14867+P47870); assay: Patch clamp electrophysiology, Qpatch in Ltk cells; format: cell-based; conditions: 10 μM test article, GABA EC20 2 μM, read-out: GABA (α1β2γ2) Qpatch in Ltk, % efficacy at 10 μM
# T2 construct: expressed in transfected cells
# T2 sequence (P18507 40-475 partner, one chain of several): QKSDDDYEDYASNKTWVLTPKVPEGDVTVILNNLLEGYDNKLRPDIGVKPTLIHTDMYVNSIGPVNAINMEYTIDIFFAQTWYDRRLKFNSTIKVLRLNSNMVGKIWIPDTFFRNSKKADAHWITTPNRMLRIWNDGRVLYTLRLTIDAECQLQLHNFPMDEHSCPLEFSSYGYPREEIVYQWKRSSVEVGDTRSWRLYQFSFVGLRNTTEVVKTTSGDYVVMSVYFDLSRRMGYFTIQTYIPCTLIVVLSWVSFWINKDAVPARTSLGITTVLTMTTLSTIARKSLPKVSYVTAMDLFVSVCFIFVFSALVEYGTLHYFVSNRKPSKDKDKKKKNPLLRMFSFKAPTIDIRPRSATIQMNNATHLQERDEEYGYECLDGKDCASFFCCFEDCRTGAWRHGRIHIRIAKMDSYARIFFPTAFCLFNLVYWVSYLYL
# Summary of the method: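 Whole-cell voltage clamp at −80 mV, room temperature: α1β2γ2 stably expressed in Ltk cells (QPatch), α4β3δ transiently in CHO cells (manual patch). Compound at 0.01–10 μM pre-applied 30 s, then 2 μM GABA (EC20) for 2 s. Potentiation = peak current with compound / GABA alone × 100.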
# [3] = GABAA-R electrophysiology, read-out: EC50
Structure (SMILES),pEC50 [1],Emax ([1]; GABAA-R electrophysiology),Emax at 10 µM [2],"pEC50 [1, 3]"
C[C@@]1(O)CC[C@H]2[C@H](CC[C@@H]3[C@@H]2CC[C@]2(C)[C@@H](C(=O)Cn4cc(C#N)cn4)CC[C@@H]32)C1 [SA-4],6.30 to 7.00,0 to 500%,100 to 500%,
Cc1cnn(CC(=O)[C@H]2CC[C@H]3[C@@H]4CC[C@@H]5C[C@](C)(O)CC[C@@H]5[C@H]4CC[C@]23C)c1 [SA-6],,0 to 500%,100 to 500%,6.30 to 7.00
C[C@@]1(O)CC[C@H]2[C@H](CC[C@@H]3[C@@H]2CC[C@]2(C)[C@@H](C(=O)Cn4cccn4)CC[C@@H]32)C1 [SA-13],,0 to 500%,100 to 500%,6.00 to 6.30
